Reference: publication PMC5110245, “Identification and reconstitution of the rubber biosynthetic machinery on rubber particles from Hevea brasiliensis” (eLife, 2016)

Tests used:
Type in all cases: biochemical
LsCPT3-LsCPTL2 = target: T1, LsCPT3-LsCPTL2 (Lactuca sativa, UniProt A0A0A0QMT0); assay: […]-IPP incorporation into rubber, net of vector-control WRPs; settings: 15 µM FPP, 5 mM MgCl2, pH 7.5, 30 °C; on Hevea WRPs; labelled compound
T1 construct: full-length synthetic CDSs (LsCPT3 in pEU-E01-His-TEV-MCS-N2, LsCPTL2 in pEU-E01-His-TEV-MCS-C1); wheat germ cell-free co-translation onto CHAPS-washed Hevea rubber particles (WRPs); with cis-prenyltransferase-like 2
T1 sequence (A0A0A0QMT0 1-296): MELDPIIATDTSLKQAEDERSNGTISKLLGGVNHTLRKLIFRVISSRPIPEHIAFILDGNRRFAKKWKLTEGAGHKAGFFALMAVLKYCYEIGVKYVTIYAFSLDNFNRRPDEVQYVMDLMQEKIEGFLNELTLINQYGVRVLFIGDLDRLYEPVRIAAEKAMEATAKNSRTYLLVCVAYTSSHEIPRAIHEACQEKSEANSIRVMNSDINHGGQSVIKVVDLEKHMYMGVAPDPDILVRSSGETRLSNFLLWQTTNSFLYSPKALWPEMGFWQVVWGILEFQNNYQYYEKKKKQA
T1 sequence (A0A0A0QP73 1-244 partner): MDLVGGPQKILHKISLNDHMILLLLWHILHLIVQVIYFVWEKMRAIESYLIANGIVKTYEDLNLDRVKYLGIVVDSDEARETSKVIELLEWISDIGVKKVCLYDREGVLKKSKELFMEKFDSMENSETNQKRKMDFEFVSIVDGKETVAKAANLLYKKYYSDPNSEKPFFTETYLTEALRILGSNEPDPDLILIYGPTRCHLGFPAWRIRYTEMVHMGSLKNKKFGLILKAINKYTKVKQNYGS

HRT1 = target: T2, HRT1 (Hevea brasiliensis, UniProt Q8L5B7); assay: as above; settings: 15 µM FPP, 5 mM MgCl2, pH 7.5, 30 °C; on WRPs; labelled compound
T2 construct: gene Hpt4; full-length CDS in pEU-E01-His-TEV-MCS-N2; wheat germ cell-free translation onto CHAPS-washed Hevea rubber particles (WRPs), which keep small amounts of endogenous proteins
T2 sequence (Q8L5B7 1-290): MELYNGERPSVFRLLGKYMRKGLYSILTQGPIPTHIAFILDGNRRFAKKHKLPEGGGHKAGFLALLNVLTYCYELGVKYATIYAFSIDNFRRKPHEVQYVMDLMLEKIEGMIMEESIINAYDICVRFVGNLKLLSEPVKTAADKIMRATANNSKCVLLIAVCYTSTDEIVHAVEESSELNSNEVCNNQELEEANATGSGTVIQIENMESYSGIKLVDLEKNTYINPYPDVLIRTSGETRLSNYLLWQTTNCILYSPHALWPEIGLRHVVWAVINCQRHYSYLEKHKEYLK

HRT1–HRBP–REF = target: T3, HRT1–HRBP–REF (Hevea brasiliensis, UniProt Q8L5B7); assay: […]-IPP incorporation into rubber, allylic substrate dependency; settings: allylic primer 15 µM; 100 µM [4-14C]IPP, 5 mM MgCl2, pH 7.5, 30 °C, 8 h; on WRPs
T3 construct: gene Hpt4; full-length CDSs, wheat germ cell-free co-translation onto CHAPS-washed Hevea rubber particles (WRPs); HRBP His6-tagged; stoichiometry not known; endogenous background present; Rubber elongation factor protein
T3 sequence (P15252 2-138, one chain of several): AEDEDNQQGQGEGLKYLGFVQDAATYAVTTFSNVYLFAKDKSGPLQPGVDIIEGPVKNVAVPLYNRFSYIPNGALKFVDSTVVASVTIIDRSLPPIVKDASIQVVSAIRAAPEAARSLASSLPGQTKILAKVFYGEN
T3 sequence (A0A1E1GJI0 entry or part of it, one chain of several, further chain): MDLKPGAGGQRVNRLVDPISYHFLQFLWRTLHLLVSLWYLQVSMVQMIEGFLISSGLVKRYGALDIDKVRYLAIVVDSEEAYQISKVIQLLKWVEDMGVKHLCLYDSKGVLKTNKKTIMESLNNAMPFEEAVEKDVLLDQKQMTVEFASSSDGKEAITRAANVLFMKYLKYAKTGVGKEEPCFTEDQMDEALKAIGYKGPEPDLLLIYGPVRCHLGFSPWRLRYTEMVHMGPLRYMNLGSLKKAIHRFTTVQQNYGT

Compound	14C-IPP incorporation into rubber, net of vector-control WRPs (LsCPT3-LsCPTL2)	14C-IPP incorporation into rubber, net of vector-control WRPs (HRT1)	14C-IPP incorporation into rubber, allylic substrate dependency (HRT1–HRBP–REF)
C=C(C)CCOP(=O)(O)OP(=O)(O)O [IPP, isopentenyl diphosphate]	Co-expression of LsCPTL2 with LsCPT3 resulted in an increase of the activity of LsCPT3	introduction of HRT1 onto WRPs distinctly increased the RTase activity (Figure 9A)	
CC(C)=CCC/C(C)=C/CC/C(C)=C/COP(=O)(O)OP(=O)(O)O [FPP, E,E-farnesyl diphosphate]			the RTase was most active with FPP (C15)
